According to paper PMC10675340, “Preparation, Radiolabeling with ^68Ga/^177Lu and Preclinical Evaluation of Novel Angiotensin Peptide Analog: A New Class of Peptides for Breast Cancer Targeting” (Pharmaceuticals, 2023):
Like-named read-outs stand apart in the source and are kept apart here. Where a SMILES comes first, the peptide text is derived from it. [ ]: non-standard residue; d: D form. The star is where a group is joined. DOTA = O=C(O)CN1CCN(CC(=O)O)CCN(CC(=O)*)CCN(CC(=O)O)CC1; βAla = NCCC(=O)O

What was measured:
athymic nude mice = experiment: In vivo metabolic stability (radio-HPLC of mouse urine); details: urine collected at 2 h p.i.
Experimental: Athymic nude mice were utilized for the metabolism study to determine the potential radio-metabolites in the urine. An aliquot of urine sample was collected by manual void at the time of sacrifice and analyzed by radio-HPLC. […] The results signified that most of the radioactivity (>80%) was still bound to the ^68Ga-AngII peptide analog (Figure 2). There were no major metabolites detected in the urine sample at 2 h p.i. A small hydrophilic metabolite peak was found at about 4 min for the urine sample. This finding confirms that the ^68Ga-AngII peptide analog is not prone to fast in vivo disintegration and is also in agreement with the results of high in vitro complex strength.
To determine the radio-metabolites of the ^68Ga-labeled AngII peptide analog, an aliquot of urine sample was collected by manual void at the time of sacrifice and mixed with an equal volume of CH3CN. The mixture was centrifuged at 7000 rpm for 5 min. The resulting supernatant was collected and passed through a 0.20 μm Millex-LG filter unit to remove any precipitate or foreign particles and then analyzed by radio-HPLC.

[1] = In vivo tumor targeting and biodistribution in nude mice bearing MDA-MB-231 xenografts; design: species or system mouse; details: mouse, total radioactivity
Experimental: (with 43% wash away from the tumors over 2 h). The amount of radioactivity found for the ^68Ga-labeled AngII peptide analog in the tumors was always more than the radioactivity detected in the blood and muscle. A general pattern of better tumor-to-blood and tumor-to-muscle uptake ratios was noticed over time for ^68Ga-labeled AngII peptide.
In vivo, tumor uptake was conducted as reported previously. In summary, ~5 million MDA-MB-231 cells in 200 µL sterile PBS were implanted subcutaneously into each nude mouse. Once tumor growth became sufficient (~50–500 mg), tumor uptake and organ biodistribution were carried out after injecting the radiolabeled AngII peptide. The percent of the injected dose per gram in the tumors was determined by using a custom-designed Quattro Pro X9 spreadsheet (Corel Corporation, Austin, TX, USA).

Compound: CC[C@H](C)[C@H](NC(=O)[C@H](Cc1ccc(O)cc1)NC(=O)[C@@H](NC(=O)[C@H](CCCNC(=N)N)NC(=O)[C@H](CC(=O)O)NC(=O)CCNC(=O)[C@H](CCCCN)NC(=O)CN1CCN(CC(=O)O)CCN(CC(=O)O)CCN(CC(=O)O)CC1)C(C)C)C(=O)N[C@@H](Cc1c[nH]cn1)C(=O)N1CCC[C@H]1C(=O)N[C@@H](Cc1ccccc1)C(=O)N[C@@H](Cc1c[nH]c2ccccc12)C(=O)N[C@@H](CCCCN)C(=O)N[C@@H](Cc1ccc(O)cc1)C(N)=O [^68Ga-DOTA-AngII peptide, metal not drawn] ({DOTA}-K[βAla]DRVYIHPFWKY-NH2)
- Radioactivity still bound to the radiopeptide in urine (athymic nude mice): > 80%
- tissue uptake at 0.75 h ([1]; blood, nude mice with MDA-MB-231 xenografts, 45 min p.i., mean ± SD, n = 4-6, read-out: Blood uptake): 0.55 ± 0.12 %ID/g
- tissue uptake at 2 h ([1]; blood, nude mice with MDA-MB-231 xenografts, 2 h p.i., mean ± SD, n = 4-6, read-out: Blood uptake): 0.22 ± 0.1 %ID/g
- tissue uptake at 0.75 h ([1]; heart, nude mice with MDA-MB-231 xenografts, 45 min p.i., mean ± SD, n = 4-6, read-out: Heart uptake): 0.88 ± 0.3 %ID/g
- tissue uptake at 2 h ([1]; heart, nude mice with MDA-MB-231 xenografts, 2 h p.i., mean ± SD, n = 4-6, read-out: Heart uptake): 0.65 ± 0.19 %ID/g
- tissue uptake at 0.75 h ([1]; intestines without contents, nude mice with MDA-MB-231 xenografts, 45 min p.i., mean ± SD, n = 4-6, read-out: Intestines uptake (portion without contents)): 1.2 ± 0.35 %ID/g
- tissue uptake at 2 h ([1]; intestines without contents, nude mice with MDA-MB-231 xenografts, 2 h p.i., mean ± SD, n = 4-6, read-out: Intestines uptake (portion without contents)): 1.05 ± 0.31 %ID/g
- tissue uptake at 0.75 h ([1]; kidneys, nude mice with MDA-MB-231 xenografts, 45 min p.i., mean ± SD, n = 4-6, read-out: Kidneys uptake): 4.89 ± 1.97 %ID/g
- tissue uptake at 2 h ([1]; kidneys, nude mice with MDA-MB-231 xenografts, 2 h p.i., mean ± SD, n = 4-6, read-out: Kidneys uptake): 3.97 ± 1.2 %ID/g
- tissue uptake at 0.75 h ([1]; liver, nude mice with MDA-MB-231 xenografts, 45 min p.i., mean ± SD, n = 4-6, read-out: Liver uptake): 0.77 ± 0.22 %ID/g
- tissue uptake at 2 h ([1]; liver, nude mice with MDA-MB-231 xenografts, 2 h p.i., mean ± SD, n = 4-6, read-out: Liver uptake): 0.65 ± 0.28 %ID/g
- tissue uptake at 0.75 h ([1]; lungs, nude mice with MDA-MB-231 xenografts, 45 min p.i., mean ± SD, n = 4-6, read-out: Lungs uptake): 0.57 ± 0.16 %ID/g
- tissue uptake at 2 h ([1]; lungs, nude mice with MDA-MB-231 xenografts, 2 h p.i., mean ± SD, n = 4-6, read-out: Lungs uptake): 0.39 ± 0.15 %ID/g
- tissue uptake at 0.75 h ([1]; muscle/bone, nude mice with MDA-MB-231 xenografts, 45 min p.i., mean ± SD, n = 4-6, read-out: Muscle/bone uptake): 0.4 ± 0.17 %ID/g
- tissue uptake at 2 h ([1]; muscle/bone, nude mice with MDA-MB-231 xenografts, 2 h p.i., mean ± SD, n = 4-6, read-out: Muscle/bone uptake): 0.19 ± 0.1 %ID/g
- tissue uptake at 0.75 h ([1]; pancreas, nude mice with MDA-MB-231 xenografts, 45 min p.i., mean ± SD, n = 4-6, read-out: Pancreas uptake): 0.47 ± 0.11 %ID/g
- tissue uptake at 2 h ([1]; pancreas, nude mice with MDA-MB-231 xenografts, 2 h p.i., mean ± SD, n = 4-6, read-out: Pancreas uptake): 0.29 ± 0.05 %ID/g
- tissue uptake at 0.75 h ([1]; spleen, nude mice with MDA-MB-231 xenografts, 45 min p.i., mean ± SD, n = 4-6, read-out: Spleen uptake): 0.39 ± 0.08 %ID/g
- tissue uptake at 2 h ([1]; spleen, nude mice with MDA-MB-231 xenografts, 2 h p.i., mean ± SD, n = 4-6, read-out: Spleen uptake): 0.24 ± 0.05 %ID/g
- tissue uptake at 0.75 h ([1]; stomach, nude mice with MDA-MB-231 xenografts, 45 min p.i., mean ± SD, n = 4-6, read-out: Stomach uptake): 0.34 ± 0.1 %ID/g
- tissue uptake at 2 h ([1]; stomach, nude mice with MDA-MB-231 xenografts, 2 h p.i., mean ± SD, n = 4-6, read-out: Stomach uptake): 0.3 ± 0.08 %ID/g
- tissue uptake at 0.75 h ([1]; tumor (MDA-MB-231 xenograft), MDA-MB-231 tumor in nude mice, 45 min p.i., mean ± SD, n = 4-6, read-out: Tumor uptake): 2.18 ± 0.66 %ID/g
- tissue uptake at 2 h ([1]; tumor (MDA-MB-231 xenograft), MDA-MB-231 tumor in nude mice, 2 h p.i., unblocked, mean ± SD, n = 4-6, read-out: Tumor uptake): 1.25 ± 0.37 %ID/g
- tissue to tissue ratio at 2 h ([1]; tumor / muscle, nude mice with MDA-MB-231 xenografts, 2 h p.i., read-out: Tumor/muscle uptake ratio): 6.58
- tissue to tissue ratio at 0.75 h ([1]; tumor/blood, nude mice with MDA-MB-231 xenografts, 45 min p.i., read-out: Tumor/blood uptake ratio): 3.96
- tissue to tissue ratio at 2 h ([1]; tumor/blood, nude mice with MDA-MB-231 xenografts, 2 h p.i., read-out: Tumor/blood uptake ratio): 5.68
- tissue to tissue ratio at 0.75 h ([1]; tumor/muscle, nude mice with MDA-MB-231 xenografts, 45 min p.i., read-out: Tumor/muscle uptake ratio): 5.45
- dose excreted at 0.75 h ([1]; urine with bladder contents, nude mice with MDA-MB-231 xenografts, 45 min p.i., mean ± SD, n = 4-6, read-out: Urine + Bladder (urinary excretion)): 49.9 ± 10.9%
- dose excreted at 2 h ([1]; urine with bladder contents, nude mice with MDA-MB-231 xenografts, 2 h p.i., mean ± SD, n = 4-6, read-out: Urine + Bladder (urinary excretion)): 55 ± 8.79%
